{
  "source": "patent US20260191933A1",
  "about": "“PHARMACEUTICAL COMBINATIONS AND USES THEREOF” (The University of Melbourne, priority 2022, published 2026)",
  "test_system": "HFHS plus low dose STZ mice",
  "assay": "I.C.V. fluorosamine in late-stage type-2 diabetes model (HFHS plus low dose streptozotocin)",
  "type": "in vivo, C57BL/6J mice",
  "details": "I.C.V. for 14 days",
  "experimental": "Mice were maintained on a 12 h light-dark cycle in a temperature-controlled high-barrier facility with free access to food and water per NHMRC Australian Code of Practice for the Care and Use of Animals. C57BL/6J and Balb/C mice were sourced from the Animal Resources Centre, Australian, whereas Agrp-IRES-Cre (Strain #:012899), db/db (strain #: 000697), Npy-GFP (Strain #:006417), Pomc-GFP (Strain #:009593), LSL-Cas9 (Strain #:028551), NZO (Strain #:002105) mice were sourced from Jackson Laboratories, USA. […]\nMetabolic measurements were undertaken in the Melbourne Mouse Metabolic Phenotyping Platform (The University of Melbourne, Australia). […] The areas under glucose excursion curves were determined and expressed as mmol/l×min. Fasted (12 h fast) plasma insulin or glucose levels were determined using a Rat/Mouse Insulin ELISA (EZRMI-13K, Merck Millipore, CA) or an Accu-Check glucometer respectively. The HOMA-IR was calculated using the equation [(glucose×insulin)/405]. Adiposity was measured using TD-NMR minispec (Bruker Optics Inc., Billerica, MA). […]",
  "data": [
    {"smiles": "CC(=O)NC1C(OC(C)=O)OC(COC(C)=O)[C@@H](F)C1OC(C)=O", "note": "(stereo partly shown) [PZ6005, per-O-acetylated-4-F-N-acetylglucosamine]", "values": [
      {"measurement": "remission of metabolic disease (daily blood glucose, glucose tolerance)", "value": "promote the remission of metabolic disease"}
    ]}
  ]
}
